Assay results published in PubChem BioAssay (NCI).
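Five compound concentrations were applied to cells in 96-well plates for 48 hours; endpoints were derived by simple linear interpolation of the resulting dose-response curve. At the TGI there is no net growth.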

Key:
Test in all cases: growth of human tumour cells (NCI), 48 h
[1] = test system: SK-MEL-28 melanoma
[2] = test system: MDA-MB-231 breast
[3] = test system: T-47D breast
[4] = test system: PC-3 prostate
[5] = test system: SF-295 CNS
[6] = test system: OVCAR-5 ovarian
[7] = test system: 786-0 renal
[8] = test system: CCRF-CEM leukemia
[9] = test system: SW-620 colon
[10] = test system: A549 NSCLC
[11] = test system: SK-OV-3 ovarian
[12] = test system: NCI/ADR-RES ovarian
[13] = test system: NCI-H23 lung
[14] = test system: MCF7 breast
[15] = test system: SK-MEL-5 melanoma
[16] = test system: NCI-H460 lung
[17] = test system: SR leukemia
[18] = test system: UO-31 renal
[19] = test system: COLO 205 colon
[20] = test system: K-562 leukemia
[21] = test system: CAKI-1 renal
[22] = test system: U251 CNS
[23] = test system: HT29 colon
[24] = test system: HCT-116 colon
[25] = test system: UACC-257 melanoma
[26] = test system: M14 melanoma
[27] = test system: A498 renal
[28] = test system: IGROV1 ovarian
[29] = test system: HOP-92 NSCLC
[30] = test system: MOLT-4 leukemia
[31] = test system: MDA-N
[32] = test system: OVCAR-3 ovarian
[33] = test system: HCT-15 colon
[34] = test system: SK-MEL-2 melanoma
[35] = test system: EKVX NSCLC
[36] = test system: DU-145 prostate
[37] = test system: RXF 393 renal
[38] = test system: HCC-2998 colon
[39] = test system: RPMI-8226 leukemia
[40] = test system: SNB-19 CNS
[41] = test system: HOP-62 NSCLC
[42] = test system: ACHN renal
[43] = test system: OVCAR-4 ovarian
[44] = test system: HS 578T breast
[45] = test system: UACC-62 melanoma
[46] = test system: KM12 colon
[47] = test system: MDA-MB-435
[48] = test system: NCI-H522 lung
[49] = test system: MALME-3M melanoma
[50] = test system: HL-60(TB) leukemia
[51] = test system: SF-268 CNS
[52] = test system: LOX IMVI melanoma
[53] = test system: SF-539 CNS
[54] = test system: TK-10 renal
[55] = test system: SNB-75 CNS
[56] = test system: NCI-H226 lung
[57] = test system: SN12C renal
[58] = test system: OVCAR-8 ovarian

COC1OC(Cn2cc([N+](=O)[O-])nc2C)C(O)C(O)C1O (stereo not given) was tested, and the TGI [1] was over 100 µM, the TGI [2] was over 100 µM and the TGI [3] was over 100 µM. It also gave a TGI [4] of over 100 µM, a TGI [5] of over 100 µM and a TGI [6] of over 100 µM. For the same compound, the TGI [7] was over 100 µM, the TGI [8] was over 100 µM and the TGI [9] was over 100 µM. For the same compound, the TGI [10] was over 100 µM, the TGI [11] was over 100 µM and the TGI [12] was over 100 µM. For the same compound, the TGI [13] was over 100 µM, the TGI [14] was over 100 µM and the TGI [15] was over 100 µM. The TGI [16] was over 100 µM, the TGI [17] was over 100 µM and the TGI [18] was over 100 µM. For the same compound, the TGI [19] was over 100 µM, the TGI [20] was over 100 µM and the TGI [21] was over 100 µM. For the same compound, the TGI [22] was over 100 µM, the TGI [23] was over 100 µM and the TGI [24] was over 100 µM. For the same compound, the TGI [25] was over 100 µM, the TGI [26] was over 100 µM and the TGI [27] was over 100 µM. The TGI [28] was over 100 µM, the TGI [29] was over 100 µM and the TGI [30] was over 100 µM. It also gave a TGI [31] of over 100 µM, a TGI [32] of over 100 µM and a TGI [33] of over 100 µM. The TGI [34] was over 100 µM, the TGI [35] was over 100 µM and the TGI [36] was over 100 µM. The TGI [37] was over 100 µM, the TGI [38] was over 100 µM and the TGI [39] was over 100 µM. The TGI [40] was over 100 µM, the TGI [41] was over 100 µM and the TGI [42] was over 100 µM. For the same compound, the TGI [43] was over 100 µM, the TGI [44] was over 100 µM and the TGI [45] was over 100 µM. For the same compound, the TGI [46] was over 100 µM, the TGI [47] was over 100 µM and the TGI [48] was over 100 µM. The TGI [49] was over 100 µM.

Compound O=C(O)CCC(NC(=O)c1ccc(Oc2nc3ccccc3nc2-c2ccccc2)cc1)C(=O)O (stereo not given) has a TGI [1] of over 100 µM, a TGI [2] of over 100 µM and a TGI [3] of over 100 µM. It also gave a TGI [4] of over 100 µM, a TGI [5] of over 100 µM and a TGI [6] of over 100 µM. The TGI [7] was over 100 µM, the TGI [8] was over 100 µM and the TGI [9] was over 100 µM. For the same compound, the TGI [10] was over 100 µM, the TGI [11] was over 100 µM and the TGI [12] was over 100 µM. For the same compound, the TGI [13] was over 100 µM, the TGI [14] was over 100 µM and the TGI [16] was over 100 µM. It also gave a TGI [17] of over 100 µM, a TGI [18] of over 100 µM and a TGI [19] of over 100 µM. For the same compound, the TGI [20] was over 100 µM, the TGI [21] was over 100 µM and the TGI [22] was over 100 µM. For the same compound, the TGI [23] was over 100 µM, the TGI [24] was over 100 µM and the TGI [25] was over 100 µM. The TGI [26] was over 100 µM, the TGI [50] was over 100 µM and the TGI [51] was over 100 µM. It also gave a TGI [52] of over 100 µM, a TGI [53] of over 100 µM and a TGI [54] of over 100 µM. For the same compound, the TGI [27] was over 100 µM, the TGI [28] was over 100 µM and the TGI [55] was over 100 µM. It also gave a TGI [29] of over 100 µM, a TGI [30] of over 100 µM and a TGI [31] of over 100 µM. For the same compound, the TGI [56] was over 100 µM, the TGI [32] was over 100 µM and the TGI [33] was over 100 µM. It also gave a TGI [34] of over 100 µM, a TGI [35] of over 100 µM and a TGI [36] of over 100 µM. For the same compound, the TGI [37] was over 100 µM, the TGI [38] was over 100 µM and the TGI [40] was over 100 µM. The TGI [41] was over 100 µM, the TGI [42] was over 100 µM and the TGI [43] was over 100 µM. For the same compound, the TGI [45] was over 100 µM, the TGI [46] was over 100 µM and the TGI [57] was over 100 µM. The TGI [47] was over 100 µM, the TGI [48] was over 100 µM and the TGI [49] was over 100 µM. The TGI [58] was over 100 µM.

For COc1ccc(NC(=O)NNS(=O)(=O)c2ccc(C)cc2)cc1, the TGI [1] was over 100 µM, the TGI [2] was over 100 µM and the TGI [3] was over 100 µM. It also gave a TGI [4] of over 100 µM, a TGI [5] of over 100 µM and a TGI [6] of over 100 µM. The TGI [7] was over 100 µM, the TGI [8] was over 100 µM and the TGI [9] was over 100 µM. For the same compound, the TGI [10] was over 100 µM, the TGI [11] was over 100 µM and the TGI [12] was over 100 µM. The TGI [13] was over 100 µM, the TGI [14] was over 100 µM and the TGI [15] was over 100 µM. The TGI [16] was over 100 µM, the TGI [17] was over 100 µM and the TGI [18] was over 100 µM. It also gave a TGI [19] of over 100 µM, a TGI [20] of over 100 µM and a TGI [21] of over 100 µM. The TGI [22] was over 100 µM, the TGI [23] was over 100 µM and the TGI [24] was over 100 µM. It also gave a TGI [25] of over 100 µM, a TGI [26] of over 100 µM and a TGI [50] of over 100 µM. The TGI [51] was over 100 µM, the TGI [53] was over 100 µM and the TGI [54] was over 100 µM. The TGI [27] was over 100 µM, the TGI [28] was over 100 µM and the TGI [55] was over 100 µM. The TGI [29] was over 100 µM, the TGI [30] was over 100 µM and the TGI [31] was over 100 µM. For the same compound, the TGI [56] was over 100 µM, the TGI [33] was over 100 µM and the TGI [34] was over 100 µM. For the same compound, the TGI [35] was over 100 µM, the TGI [36] was over 100 µM and the TGI [37] was over 100 µM. For the same compound, the TGI [38] was over 100 µM, the TGI [39] was over 100 µM and the TGI [40] was over 100 µM. It also gave a TGI [41] of over 100 µM, a TGI [42] of over 100 µM and a TGI [43] of over 100 µM. For the same compound, the TGI [44] was over 100 µM, the TGI [45] was over 100 µM and the TGI [46] was over 100 µM. It also gave a TGI [57] of over 100 µM, a TGI [47] of over 100 µM and a TGI [48] of over 100 µM. For the same compound, the TGI [49] was over 100 µM and the TGI [58] was over 100 µM.

O=c1[nH]c(=O)n(C2CC(O)C(COP(=O)(OCC(Cl)(Cl)Cl)OCC(Cl)(Cl)Cl)O2)cc1F (stereo not given) was tested, and the TGI [1] was over 100 µM, the TGI [2] was over 100 µM and the TGI [3] was over 100 µM. It also gave a TGI [4] of over 100 µM, a TGI [5] of over 100 µM and a TGI [6] of over 100 µM. The TGI [7] was over 100 µM, the TGI [8] was over 100 µM and the TGI [9] was over 100 µM. The TGI [10] was over 100 µM, the TGI [11] was over 100 µM and the TGI [12] was over 100 µM. It also gave a TGI [13] of over 100 µM, a TGI [14] of over 100 µM and a TGI [15] of over 100 µM. For the same compound, the TGI [16] was over 100 µM, the TGI [17] was over 100 µM and the TGI [18] was over 100 µM. It also gave a TGI [19] of over 100 µM, a TGI [20] of over 100 µM and a TGI [21] of over 100 µM. It also gave a TGI [22] of over 100 µM, a TGI [23] of over 100 µM and a TGI [24] of over 100 µM. For the same compound, the TGI [25] was over 100 µM, the TGI [26] was over 100 µM and the TGI [50] was 51 µM. The TGI [51] was over 100 µM, the TGI [52] was over 100 µM and the TGI [54] was over 100 µM. The TGI [28] was over 100 µM, the TGI [55] was over 100 µM and the TGI [29] was over 100 µM. The TGI [30] was over 100 µM, the TGI [31] was over 100 µM and the TGI [56] was over 100 µM. It also gave a TGI [32] of over 100 µM, a TGI [33] of over 100 µM and a TGI [34] of over 100 µM. For the same compound, the TGI [35] was over 100 µM, the TGI [36] was over 100 µM and the TGI [38] was 1.62 µM. It also gave a TGI [39] of over 100 µM, a TGI [40] of over 100 µM and a TGI [41] of 1.53 µM. For the same compound, the TGI [42] was over 100 µM, the TGI [43] was over 100 µM and the TGI [44] was over 100 µM. For the same compound, the TGI [45] was over 100 µM, the TGI [46] was over 100 µM and the TGI [57] was over 100 µM. For the same compound, the TGI [47] was over 100 µM, the TGI [48] was over 34.8 µM and the TGI [49] was over 100 µM. The TGI [58] was over 100 µM.
